For orientation: IC50 means the concentration needed to halve the response being measured. A high value points to a need for much substance.

This experiment deals with human TrkA receptor (Homo sapiens (Human), UniProt P04629). The experiment in a line: TrkA functional activity, DiscoverX PathHunter assay (NGF-stimulated U2OS cells). It counts as cell-based. The conditions noted are these: U2OS cells expressing human TrkA-Prolink, Shc1-EA and p75NTR; compound 1 h, then NGF (~80% of maximal response) 3 h; luminescence. The protocol: TrkA functional activity was measured using a DiscoverX PathHunter assay. In this assay, U2OS cells express the human TrkA receptor as a fusion with the weakly complementing fragment of B-galactosidase, which DiscoverX calls “Prolink (PK)”; additionally, Shc1 is fused with a larger fragment, which is called “Enzyme Acceptor (EA)”. Activation of the TrkA receptor, upon NGF addition, results in the kinase domain being phosphorylated, resulting in subsequent recruitment of Shc1-EA protein. That recruitment results in an active B-galactosidase enzyme that is detected by addition of a chemiluminescent substrate. The human p75^NTR protein was also expressed as a co-receptor for NGF.
All reagents were purchased from DiscoverX, except for the receptor agonists (NGF, BDNF, NT3) which were purchased from Peprotech. Cells were expanded and frozen into cryovials, and stored in the vapor phase of liquid nitrogen, and thawed immediately before use. Thawed cells were added to a 384-well plate at 7500 cells/well, and allowed to incubate overnight. Compound at various concentrations was added the following morning and allowed to incubate on cells for 1 h. Then, NGF was added at a concentration sufficient to elicit ˜80% of a maximal response and allowed to incubate for 3 h at ambient temperature. DiscoverX PathHunter detection reagent was then added and the plate was further incubated for 1 h in the dark. The plate was then read via luminescence on the Perkin Elmer Envision.

Sequence of human TrkA receptor (P04629 33-796): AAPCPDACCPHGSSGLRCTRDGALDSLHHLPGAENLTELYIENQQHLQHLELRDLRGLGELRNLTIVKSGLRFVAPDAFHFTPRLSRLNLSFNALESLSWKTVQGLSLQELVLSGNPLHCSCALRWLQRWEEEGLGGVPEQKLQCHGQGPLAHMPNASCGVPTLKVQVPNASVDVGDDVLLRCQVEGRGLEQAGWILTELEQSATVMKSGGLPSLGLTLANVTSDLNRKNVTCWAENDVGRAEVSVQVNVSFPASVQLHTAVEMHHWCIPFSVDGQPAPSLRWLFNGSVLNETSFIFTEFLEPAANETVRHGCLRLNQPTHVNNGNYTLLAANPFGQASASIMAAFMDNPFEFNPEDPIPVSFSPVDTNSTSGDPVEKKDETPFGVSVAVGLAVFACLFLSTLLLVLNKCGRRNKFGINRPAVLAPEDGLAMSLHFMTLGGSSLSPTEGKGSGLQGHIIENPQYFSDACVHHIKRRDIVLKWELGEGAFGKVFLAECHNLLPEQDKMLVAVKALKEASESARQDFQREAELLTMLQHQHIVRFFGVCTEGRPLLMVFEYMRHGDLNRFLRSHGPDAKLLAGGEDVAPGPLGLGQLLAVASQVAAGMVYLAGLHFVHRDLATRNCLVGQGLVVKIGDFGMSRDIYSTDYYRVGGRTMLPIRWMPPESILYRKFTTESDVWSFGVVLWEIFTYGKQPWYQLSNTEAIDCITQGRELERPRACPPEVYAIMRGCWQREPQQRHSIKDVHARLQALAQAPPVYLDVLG

Take `CC(O)c1nc2c(NC(=O)c3ccc(C(F)(F)F)c(-c4ccn(C)n4)c3)c(-c3ccccc3)ccc2s1` (racemic) [Compound 6, (R and S)—N-(2-(1-Hydroxyethyl)-5-phenylbenzo[d]thiazol-4-yl)-3-(1-methyl-1H-pyrazol-3-yl)-4-(trifluoromethyl)benzamide]: the half-inhibitory concentration (IC50) came to 11 nM. That is a double-digit nanomolar value.

For the compound `CC(O)c1n[nH]c2c(NC(=O)c3cc(-c4ncccn4)c(C(F)(F)F)cc3F)c(-c3ccccc3)ccc12` (racemic) [Compound 46, (R) and (S)-2-Fluoro-N-(3-(1-hydroxyethyl)-6-phenyl-1H-indazol-7-yl)-5-(pyrimidin-2-yl)-4-(trifluoromethyl)benzamide], it took 2.9 nM to reach half-maximal inhibition (IC50).

Regarding `CC(O)c1n[nH]c2c(NC(=O)c3cc(-c4ncccn4)c(C(F)(F)F)cc3F)c(-c3ccccc3)ccc12` (racemic) [Compound 47, (R) and (S)-2-Fluoro-N-(3-(1-hydroxyethyl)-6-phenyl-1H-indazol-7-yl)-5-(pyrimidin-2-yl)-4-(trifluoromethyl)benzamide], the half-inhibitory concentration (IC50) turned out to be 4.5 nM.

In turn, `CC(O)c1cnc2c(NC(=O)c3cc(-c4ncccn4)c(C(F)(F)F)cc3F)c(-c3ccccc3)ncn12` (racemic) [Compound 71, (R and S)-2-Fluoro-N-(3-(1-hydroxyethyl)-7-phenylimidazo[1,2-c]pyrimidin-8-yl)-5-(pyrimidin-2-yl)-4-(trifluoromethyl)benzamide] registered a half-inhibitory concentration (IC50) of 6.6 nM.

`CC(O)c1nc2c(NC(=O)c3ccc(C(F)(F)F)c(-c4ccn(C)n4)c3)c(-c3ccccc3)ccc2s1` (single isomer, unassigned) [Compound 5, (R and S)—N-(2-(1-Hydroxyethyl)-5-phenylbenzo[d]thiazol-4-yl)-3-(1-methyl-1H-pyrazol-3-yl)-4-(trifluoromethyl)benzamide] gave a half-maximal inhibitory concentration (IC50) of 13 nM.

In turn, `CC(O)c1cnc2c(NC(=O)c3cc(-c4ncccn4)c(C(F)(F)F)cc3F)c(-c3ccccc3)ccn12` (single isomer, unassigned) [Compound 9, (R) or (S)-2-Fluoro-N-(3-(1-hydroxyethyl)-7-phenylimidazo[1,2-a]pyridin-8-yl)-5-(pyrimidin-2-yl)-4-(trifluoromethyl)benzamide] showed a 50% inhibitory concentration (IC50) of 3.3 nM.

`CC(O)c1cnc2c(NC(=O)c3cc(-c4ncccn4)c(C(F)(F)F)cc3F)c(-c3ccccc3)ccn12` (single isomer, unassigned) [Compound 10, (R) or (S)-2-Fluoro-N-(3-(1-hydroxyethyl)-7-phenylimidazo[1,2-a]pyridin-8-yl)-5-(pyrimidin-2-yl)-4-(trifluoromethyl)benzamide] showed an IC50 of 1.1 nM.

Compound `CC(O)c1cnc2c(NC(=O)c3ccc(C(F)(F)F)c(-c4ccn(C)n4)c3)c(-c3ccccc3)ccn12` (single isomer, unassigned) [Compound 14, (R) or (S)-N-[3-(1-hydroxyethyl)-7-phenylimidazo[1,2-a]pyridin-8-yl]-3-(1-methyl-1H-pyrazol-3-yl)-4-(trifluoromethyl)benzamide] showed an IC50 of 5.1 nM.

`CC(O)c1cnc2c(NC(=O)c3ccc(C(F)(F)F)c(-c4ccn(C)n4)c3)c(-c3ccccc3)ccn12` (single isomer, unassigned) [Compound 15, (R) or (S)-N-[3-(1-hydroxyethyl)-7-phenylimidazo[1,2-a]pyridin-8-yl]-3-(1-methyl-1H-pyrazol-3-yl)-4-(trifluoromethyl)benzamide] returned a 50% inhibitory concentration (IC50) of 2.2 nM.

In turn, `CC(O)c1cnc2c(NC(=O)c3cc(-c4ccn(C)n4)c(C(F)(F)F)cc3F)c(-c3ccccc3)ccn12` (single isomer, unassigned) [Compound 25, (R) or (S)-2-fluoro-N-[3-(1-hydroxyethyl)-7-phenylimidazo[1,2-a]pyridin-8-yl]-5-(1-methyl-1H-pyrazol-3-yl)-4-(trifluoromethyl)benzamide] displayed an IC50 of 0.81 nM.

The compound `CC(O)c1cnc2c(NC(=O)c3cc(-c4ccn(C)n4)c(C(F)(F)F)cc3F)c(-c3ccccc3)ccn12` (single isomer, unassigned) [Compound 26, (R) or (S)-2-fluoro-N-[3-(1-hydroxyethyl)-7-phenylimidazo[1,2-a]pyridin-8-yl]-5-(1-methyl-1H-pyrazol-3-yl)-4-(trifluoromethyl)benzamide] returned a 50% inhibitory concentration (IC50) of 0.31 nM.

With `CC(O)c1cnc2c(NC(=O)c3cc(-c4cc[nH]n4)c(C(F)(F)F)cc3F)c(-c3ccccc3)ccn12` (single isomer, unassigned) [Compound 27, (R) or (S)-2-fluoro-N-[3-(1-hydroxyethyl)-7-phenylimidazo[1,2-a]pyridin-8-yl]-5-(1H-pyrazol-3-yl)-4-(trifluoromethyl)benzamide], 3.5 nM corresponded to half-maximal inhibition (IC50).

`CC(O)c1cnc2c(NC(=O)c3cc(-c4cc[nH]n4)c(C(F)(F)F)cc3F)c(-c3ccccc3)ccn12` (single isomer, unassigned) [Compound 28, (R) or (S)-2-fluoro-N-[3-(1-hydroxyethyl)-7-phenylimidazo[1,2-a]pyridin-8-yl]-5-(1H-pyrazol-3-yl)-4-(trifluoromethyl)benzamide] came in with a 50% inhibitory concentration (IC50) of 1.8 nM. Against the preceding compound, the IC50 is about 1.9-fold lower.

`CC(O)c1cnc2c(NC(=O)c3cc(-c4ccccn4)c(C(F)(F)F)cc3F)c(-c3ccccc3)ccn12` (single isomer, unassigned) [Compound 29, (R) or (S)-2-fluoro-N-[3-(1-hydroxyethyl)-7-phenylimidazo[1,2-a]pyridin-8-yl]-5-pyridin-2-yl-4-(trifluoromethyl)benzamide] returned an IC50 of 1.7 nM.

As for `CC(O)c1cnc2c(NC(=O)c3cc(-c4ccccn4)c(C(F)(F)F)cc3F)c(-c3ccccc3)ccn12` (single isomer, unassigned) [Compound 30, (R) or (S)-2-fluoro-N-[3-(1-hydroxyethyl)-7-phenylimidazo[1,2-a]pyridin-8-yl]-5-pyridin-2-yl-4-(trifluoromethyl)benzamide], the midpoint of inhibition, the IC50, lay at 0.74 nM.

`CC(O)c1n[nH]c2c(NC(=O)c3ccc(C(F)(F)F)c(-c4ccn(C)n4)c3)c(-c3ccccc3)ccc12` (single isomer, unassigned) [Compound 48, (R) or (S)-N-[3-(1-hydroxyethyl)-6-phenyl-1H-indazol-7-yl]-3-(1-methyl-1H-pyrazol-3-yl)-4-(trifluoromethyl)benzamide] came in with a 50% inhibitory concentration (IC50) of 0.9 nM. This IC50 and that of the compound before are within 1.5-fold of each other.

For `CC(O)c1n[nH]c2c(NC(=O)c3ccc(C(F)(F)F)c(-c4ccn(C)n4)c3)c(-c3ccccc3)ccc12` (single isomer, unassigned) [Compound 49, (R) or (S)-N-[3-(1-hydroxyethyl)-6-phenyl-1H-indazol-7-yl]-3-(1-methyl-1H-pyrazol-3-yl)-4-(trifluoromethyl)benzamide], the half-maximal inhibitory concentration (IC50) came to 2 nM.

For `CC(O)c1cnc2c(NC(=O)c3cc(-c4ncccn4)c(C(F)(F)F)cc3F)c(-c3ccc(F)cc3)ccn12` (single isomer, unassigned) [Compound 52, (R) or (S)-2-fluoro-N-[7-(4-fluorophenyl)-3-(1-hydroxyethyl)imidazo[1,2-a]pyridin-8-yl]-5-pyrimidin-2-yl-4-(trifluoromethyl)benzamide], the IC50 came to 4.9 nM.

Turning to `CC(O)c1cnc2c(NC(=O)c3cc(-c4ncccn4)c(C(F)(F)F)cc3F)c(-c3ccc(F)cc3)ccn12` (single isomer, unassigned) [Compound 53, (R) or (S)-2-fluoro-N-[7-(4-fluorophenyl)-3-(1-hydroxyethyl)imidazo[1,2-a]pyridin-8-yl]-5-pyrimidin-2-yl-4-(trifluoromethyl)benzamide], inhibition was half-maximal at 29 nM (IC50).

For the compound `CC(O)c1cnc2c(NC(=O)c3cc(-c4ncccn4)c(C(F)(F)F)cc3F)c(-c3ccccc3)ncn12` (single isomer, unassigned) [Compound 72, (R and S)-2-Fluoro-N-(3-(1-hydroxyethyl)-7-phenylimidazo[1,2-c]pyrimidin-8-yl)-5-(pyrimidin-2-yl)-4-(trifluoromethyl)benzamide], half-maximal inhibition (IC50) was put at 5.1 nM. Against the preceding compound, the IC50 is about 5.7-fold lower.

`[2H]C(C)(O)c1cnc2c(NC(=O)c3cc(-c4ncccn4)c(C(F)(F)F)cc3F)c(-c3ccccc3)ccn12` (single isomer, unassigned) [Compound 74, (R and S)-2-Fluoro-N-(3-(1-hydroxyethyl-1-d)-7-phenylimidazo[1,2-a]pyridin-8-yl)-5-(pyrimidin-2-yl)-4-(trifluoromethyl)benzamide] yielded an IC50 of 4.2 nM.

The compound `[2H]C(C)(O)c1cnc2c(NC(=O)c3cc(-c4ncccn4)c(C(F)(F)F)cc3F)c(-c3ccccc3)ccn12` (single isomer, unassigned) [Compound 75, (R and S)-2-Fluoro-N-(3-(1-hydroxyethyl-1-d)-7-phenylimidazo[1,2-a]pyridin-8-yl)-5-(pyrimidin-2-yl)-4-(trifluoromethyl)benzamide] came in with an IC50 of 2 nM.

`Cn1ccc(-c2cc(C(=O)Nc3c(-c4ccccc4)ccc4nc(C(C)(C)O)cn34)ccc2C(F)(F)F)n1` [Compound 1, N-(2-(2-Hydroxypropan-2-yl)-6-phenylimidazo[1,2-a]pyridin-5-yl)-3-(1-methyl-1H-pyrazol-3-yl)-4-(trifluoromethyl)benzamide] came in with an IC50 of 17 nM.

Consider `Cn1ccc(-c2cc(C(=O)Nc3c(-c4ccccc4)ccn4cc(C(C)(C)O)nc34)ccc2C(F)(F)F)n1` [Compound 2, N-(2-(2-Hydroxypropan-2-yl)-7-phenylimidazo[1,2-a]pyridin-8-yl)-3-(1-methyl-1H-pyrazol-3-yl)-4-(trifluoromethyl)benzamide], for which the IC50 is 139 nM.
